Experimental data taken from patent US10975093B2, “Fused 1,4-diazepines as BET protein degraders” (THE REGENTS OF THE UNIVERSITY OF MICHIGAN, priority 2016, dated 2021).

Key:
Type in all cases: cell-based
MOLM-13 = test: Cell growth inhibition, CellTiter-Glo Luminescent Cell Viability Assay, MOLM-13; details: Homo sapiens, MOLM-13 cells, 4 days incubation
Procedure, shortened: (§1)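 Cells were seeded at 2,000/well with serially diluted compound and grown 4 days at 37° C, 5% CO2. Viability was read by CellTiter-Glo luminescence after 10-20 min at room temperature, and IC50 was fitted from the dose-response.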

RS4; 11 = test: Cell growth inhibition, CellTiter-Glo Luminescent Cell Viability Assay, RS4;11; details: Homo sapiens, 96 h, RS4;11 cells, 4 days incubation
Protocol: (§2) Cell growth inhibitory activity of representative Compounds of the Disclosure was determined in various cell lines using CellTiter-Glo® Luminescent Cell Viability Assay. Cells were seeded in 384-well white opaque cell culture plates at a density of 2,000 cells/well with serially diluted compounds and incubated at 37° C. in an atmosphere of 95% air and 5% CO2 for 4 days. Cell viability was determined using the CellTiter-Glo® Luminescent Cell Viability Assay Kit (Promega, Madison, Wis.) according to the manufacture's instruction. Briefly, a volume of CellTiter-Glo® Reagent equal to the volume of cell culture medium was added to each well, and then the plates were incubated at room temperature for 10-20 minutes. The luminescent signal was measured using a Tecan Infinite M1000 multimode microplate reader (Tecan, Morrisville, N.C.). The half maximal inhibitory concentration (IC50) was calculated using the GraphPad Prism 5 software (GraphPad Software, La Jolla, Calif.).

MDA-MB-468 = test: Cell growth inhibition, CellTiter-Glo Luminescent Cell Viability Assay, MDA-MB-468; details: Homo sapiens, 96 h, MDA-MB-468 cells, 4 days incubation
Protocol: as §2

MDA-MB-231 = test: Cell growth inhibition, CellTiter-Glo Luminescent Cell Viability Assay, MDA-MB-231; details: Homo sapiens, MDA-MB-231 cells, 4 days incubation
Procedure, shortened: as §1

IC50 (MOLM-13; MOLM-13, 96 h) [nM] | IC50 (MDA-MB-231; MDA-MB-231, 96 h) [nM] | SMILES | IC50 (MOLM-13; 96 h) [nM] | IC50 (RS4; 11) [nM] | IC50 (MDA-MB-468) [nM] | IC50 (MDA-MB-231; 96 h) [nM]
 |  | Cc1c(C#Cc2ccc(CCCCOc3cccc4c3C(=O)N(C3CCC(=O)NC3=O)C4=O)cn2)sc2c1C(c1ccc(Cl)cc1)=NCc1nnc(C)n1-2 (stereo not shown) [Cpd. No. 9, 4-(4-(6-((4-(4-chlorophenyl)-3,9-dimethyl-6H-thieno[3,2-f][1,2,4]triazolo[4,3-a][1,4]diazepin-2-yl)ethynyl)pyridin-3-yl)butoxy)-2-(2,6-dioxopiperidin-3-yl)isoindoline-1,3-dione] | 19 | 2.3 | 33 | 20.4
66.1 | > 100 | Cc1c(C#Cc2cncn2CCCC#Cc2cccc3c2CN(C2CCC(=O)NC2=O)C3=O)sc2c1C(c1ccc(Cl)cc1)=NCc1nnc(C)n1-2 (stereo not shown) [Cpd. No. 28, 3-(4-(5-(5-((4-(4-chlorophenyl)-3,9-dimethyl-6H-thieno[3,2-f][1,2,4]triazolo[4,3-a][1,4]diazepin-2-yl)ethynyl)-1H-imidazol-1-yl)pent-1-yn-1-yl)-1-oxoisoindolin-2-yl)piperidine-2,6-dione] |  | > 10 | > 100 | 
9.1 | 24.2 | Cc1c(C#Cc2cnn(CCCC#Cc3cccc4c3C(=O)N(C3CCC(=O)NC3=O)C4=O)c2)sc2c1C(c1ccc(Cl)cc1)=NCc1nnc(C)n1-2 (stereo not shown) [Cpd. No. 25, 4-(5-(4-((4-(4-chlorophenyl)-3,9-dimethyl-6H-thieno[3,2-f][1,2,4]triazolo[4,3-a][1,4]diazepin-2-yl)ethynyl)-1H-pyrazol-1-yl)pent-1-yn-1-yl)-2-(2,6-dioxopiperidin-3-yl)isoindoline-1,3-dione] |  | 1 | 34.9 | 
0.9 | 0.9 | Cc1c(C#Cc2cnn(CCCCNc3cccc4c3C(=O)N(C3CCC(=O)NC3=O)C4=O)c2)sc2c1C(c1ccc(Cl)cc1)=N[C@@H](C)c1nnc(C)n1-2 (stereo partly drawn) [Cpd. No. 22, 4-((4-(4-(((S)-4-(4-chlorophenyl)-3,6,9-trimethyl-6H-thieno[3,2-f][1,2,4]triazolo[4,3-a][1,4]diazepin-2-yl)ethynyl)-1H-pyrazol-1-yl)butyl)amino)-2-(2,6-dioxopiperidin-3-yl)isoindoline-1,3-dione] |  | 0.2 | 1.8 | 
1.1 | 3.8 | Cc1c(C#Cc2cnn(CCCCNc3cccc4c3C(=O)N(C3CCC(=O)NC3=O)C4=O)c2)sc2c1C(c1ccc(Cl)cc1)=NCc1nnc(C)n1-2 (stereo not shown) [Cpd. No. 21, 4-((4-(4-((4-(4-chlorophenyl)-3,9-dimethyl-6H-thieno[3,2-f][1,2,4]triazolo[4,3-a][1,4]diazepin-2-yl)ethynyl)-1H-pyrazol-1-yl)butyl)amino)-2-(2,6-dioxopiperidin-3-yl)isoindoline-1,3-dione] |  | 0.3 | 6.5 | 
 |  | Cc1c(C#Cc2cn(CCCC#Cc3cccc4c3CN(C3CCC(=O)NC3=O)C4=O)nn2)sc2c1C(c1ccc(Cl)cc1)=N[C@@H](C)c1nnc(C)n1-2 (stereo partly drawn) [Cpd. No. 2, 3-(4-(5-(4-(((S)-4-(4-chlorophenyl)-3,6,9-trimethyl-6H-thieno[3,2-f][1,2,4]triazolo[4,3-a][1,4]diazepin-2-yl)ethynyl)-1H-1,2,3-triazol-1-yl)pent-1-yn-1-yl)-1-oxoisoindolin-2-yl)piperidine-2,6-dione] | 0.4 | < 0.0015 | 0.27 | 0.19
22.8 | > 100 | Cc1c(C#Cc2cncn2CCCC#Cc2cccc3c2C(=O)N(C2CCC(=O)NC2=O)C3=O)sc2c1C(c1ccc(Cl)cc1)=NCc1nnc(C)n1-2 (stereo not shown) [Cpd. No. 29, 4-(5-(5-((4-(4-chlorophenyl)-3,9-dimethyl-6H-thieno[3,2-f][1,2,4]triazolo[4,3-a][1,4]diazepin-2-yl)ethynyl)-1H-imidazol-1-yl)pent-1-yn-1-yl)-2-(2,6-dioxopiperidin-3-yl)isoindoline-1,3-dione] |  | 7 | > 100 | 
 |  | Cc1c(C#Cc2cn(CCCCNc3cccc4c3CN(C3CCC(=O)NC3=O)C4=O)nn2)sc2c1C(c1ccc(Cl)cc1)=NCc1nnc(C)n1-2 (stereo not shown) [Cpd. No. 5, 3-(4-((4-(4-((4-(4-chlorophenyl)-3,9-dimethyl-6H-thieno[3,2-f][1,2,4]triazolo[4,3-a][1,4]diazepin-2-yl)ethynyl)-1H-1,2,3-triazol-1-yl)butyl)amino)-1-oxoisoindolin-2-yl)piperidine-2,6-dione] | 3.6 | 0.29 | 26.1 | 22.8
 |  | Cc1c(C#Cc2cn(CCCCCc3cccc4c3CN(C3CCC(=O)NC3=O)C4=O)nn2)sc2c1C(c1ccc(Cl)cc1)=NCc1nnc(C)n1-2 (stereo not shown) [Cpd. No. 3, 3-(4-(5-(4-((4-(4-chlorophenyl)-3,9-dimethyl-6H-thieno[3,2-f][1,2,4]triazolo[4,3-a][1,4]diazepin-2-yl)ethynyl)-1H-1,2,3-triazol-1-yl)pentyl)-1-oxoisoindolin-2-yl)piperidine-2,6-dione] | 1 | 0.27 | 3.1 | 3.5
 |  | Cc1c(C#Cc2ccc(CCCCNc3cccc4c3CN(C3CCC(=O)NC3=O)C4=O)cn2)sc2c1C(c1ccc(Cl)cc1)=N[C@@H](C)c1nnc(C)n1-2 (stereo partly drawn) [Cpd. No. 8, 3-(4-((4-(6-(((S)-4-(4-chlorophenyl)-3,6,9-trimethyl-6H-thieno[3,2-f][1,2,4]triazolo[4,3-a][1,4]diazepin-2-yl)ethynyl)pyridin-3-yl)butyl)amino)-1-oxoisoindolin-2-yl)piperidine-2,6-dione] | 0.26 | 0.19 | 0.65 | 0.17
 |  | Cc1c(C#Cc2cn(CCCC#Cc3cccc4c3CN(C3CCC(=O)NC3=O)C4=O)nn2)sc2c1C(c1ccc(Cl)cc1)=NCc1nnc(C)n1-2 (stereo not shown) [Cpd. No. 1, 3-(4-(5-(4-((4-(4-chlorophenyl)-3,9-dimethyl-6H-thieno[3,2-f][1,2,4]triazolo[4,3-a][1,4]diazepin-2-yl)ethynyl)-1H-1,2,3-triazol-1-yl)pent-1-yn-1-yl)-1-oxoisoindolin-2-yl)piperidine-2,6-dione] | 1.16 | 0.25 | 10 | 8.1
 |  | Cc1c(C#Cc2ccc(CCCCNc3cccc4c3CN(C3CCC(=O)NC3=O)C4=O)cn2)sc2c1C(c1ccc(Cl)cc1)=NCc1nnc(C)n1-2 (stereo not shown) [Cpd. No. 7, 3-(4-((4-(6-((4-(4-chlorophenyl)-3,9-dimethyl-6H-thieno[3,2-f][1,2,4]triazolo[4,3-a][1,4]diazepin-2-yl)ethynyl)pyridin-3-yl)butyl)amino)-1-oxoisoindolin-2-yl)piperidine-2,6-dione] | 4.2 | 0.81 | 10.7 | 6.08
< 0.015 | < 0.015 | Cc1c(C#Cc2cnn(CCCCCc3cccc4c3CN(C3CCC(=O)NC3=O)C4=O)c2)sc2c1C(c1ccc(Cl)cc1)=N[C@@H](C)c1nnc(C)n1-2 (stereo partly drawn) [Cpd. No. 24, 3-(4-(5-(4-(((S)-4-(4-chlorophenyl)-3,6,9-trimethyl-6H-thieno[3,2-f][1,2,4]triazolo[4,3-a][1,4]diazepin-2-yl)ethynyl)-1H-pyrazol-1-yl)pentyl)-1-oxoisoindolin-2-yl)piperidine-2,6-dione] |  | < 0.015 | < 0.015 | 
32 | > 100 | Cc1c(C#Cc2cn(CCCC#Cc3cccc4c3C(=O)N(C3CCC(=O)NC3=O)C4=O)cn2)sc2c1C(c1ccc(Cl)cc1)=NCc1nnc(C)n1-2 (stereo not shown) [Cpd. No. 27, 4-(5-(4-((4-(4-chlorophenyl)-3,9-dimethyl-6H-thieno[3,2-f][1,2,4]triazolo[4,3-a][1,4]diazepin-2-yl)ethynyl)-1H-imidazol-1-yl)pent-1-yn-1-yl)-2-(2,6-dioxopiperidin-3-yl)isoindoline-1,3-dione] |  | > 10 | > 100 | 
 |  | Cc1c(C#Cc2cn(CCCCNc3cccc4c3CN(C3CCC(=O)NC3=O)C4=O)nn2)sc2c1C(c1ccc(Cl)cc1)=N[C@@H](C)c1nnc(C)n1-2 (stereo partly drawn) [Cpd. No. 6, 3-(4-((4-(4-(((S)-4-(4-chlorophenyl)-3,6,9-trimethyl-6H-thieno[3,2-f][1,2,4]triazolo[4,3-a][1,4]diazepin-2-yl)ethynyl)-1H-1,2,3-triazol-1-yl)butyl)amino)-1-oxoisoindolin-2-yl)piperidine-2,6-dione] | 0.77 | < 0.0015 | 1.7 | 2.3
 |  | Cc1c(C#Cc2cn(CCCC#Cc3cccc4c3CN(C3CCC(=O)NC3=O)C4=O)cn2)sc2c1C(c1ccc(Cl)cc1)=NCc1nnc(C)n1-2 (stereo not shown) [Cpd. No. 26, 3-(4-(5-(4-((4-(4-chlorophenyl)-3,9-dimethyl-6H-thieno[3,2-f][1,2,4]triazolo[4,3-a][1,4]diazepin-2-yl)ethynyl)-1H-imidazol-1-yl)pent-1-yn-1-yl)-1-oxoisoindolin-2-yl)piperidine-2,6-dione] | 39.2 | > 10 | > 100 | > 100
